Entries after “also recorded” stand apart in the source; their conditions may differ. Read-outs that look alike come from different tables or passages of the source.
What was measured:
5XFAD mice = assay: Novel Object Recognition Test (NORT) in 5XFAD mice
Procedure: (§1) Mice were placed in a 90°, two-arm, 25-cm-long, 20-cm-high, 5-cm-wide black maze. The walls could be lifted off for easy cleaning. Light intensity in the middle of the field was 30 lux. The objects to be discriminated were made of plastic and were chosen not to frighten the mice, and objects with parts that could be bitten were avoided. Before performing the test, the mice were individually habituated to the apparatus for 10 min during 3 days. On day 4, the animals were submitted to a 10-min acquisition trial (first trial), during which they were placed in the maze in the presence of two identical, novel objects (A+A or B+B) at the end of each arm. A 10-min retention trial (second trial) was carried out 2 h later. During this second trial, objects A and B were placed in the maze and the behavior of the mice was recorded with a camera. Time that the mice explored the new object (TN) and Time that the mice explored the Old object (TO) were measured. A Discrimination Index (DI) was defined as (TN−TO)/(TN+TO). In order to avoid object preference biases, A and B were counterbalanced so that one half of the animals in each experimental group were exposed first to A and then to B, whereas the remaining half saw B first and then A. The maze and the objects were cleaned with 70° ethanol after each test in order to eliminate olfactory cues.

SAMP8 mice = assay: Novel Object Recognition Test (NORT) in SAMP8 mice
Procedure: as §1

II-6 [1] = assay: Gene expression of inflammatory marker II-6 by real-time PCR in 5XFAD mice; details: 5×FAD
Procedure: (§2) Total RNA isolation was carried out by means of Trizol reagent following manufacturer's instructions. […] Samples were also tested in an Agilent 2100B Bioanalyzer (Agilent Technologies) to determine the RNA integrity number. Reverse Transcription-Polymerase Chain Reaction (RT-PCR) was performed as follows: 2 μg of messenger RNA (mRNA) was reverse-transcribed using the High Capacity complementary DNA (cDNA) Reverse Transcription Kit (Applied Biosystems). Normalization of expression levels was performed with actin. SYBER Green, real-time PCR was performed in the Step One Plus Detection System (Applied Biosystems) employing the SYBR Green PCR Master Mix. Each reaction mixture contained 7.5 μL of cDNA, whose concentration was 2 μg, 0.75 μL of each primer (whose concentration was 100 nM), and 7.5 μL of SYBR Green PCR Master Mix (2×). Data were analyzed utilizing the comparative Cycle threshold (Ct) method (Fold Change), where the actin transcript level was used to normalize differences in sample loading and preparation. Each sample (n=4-5) was analyzed in triplicate, and results represented the n-fold difference of transcript levels among different samples.

in vitro = details: pig, PAMPA
Procedure: (§3) To evaluate the brain penetration of the different compounds, a parallel artificial membrane permeation assay for blood-brain barrier was used, following the method described by Di et al. (cf. Table 2). The in vitro permeability (Pe) of fourteen commercial drugs through lipid extract of porcine brain membrane together with the test compounds were determined. Commercial drugs and assayed compounds were tested using a mixture of PBS:EtOH (70:30).

[2] = predictive penetration in the CNS from PAMPA-BBB Pe
Procedure: as §3

II-6 [3] = assay: Gene expression of inflammatory marker II-6 by real-time PCR in SAMP8 mice
Procedure: as §2

Cxcl10 [4] = assay: Gene expression of inflammatory marker Cxcl10 by real-time PCR in 5XFAD mice; details: 5×FAD
Procedure: as §2

Cxcl10 [5] = assay: Gene expression of inflammatory marker Cxcl10 by real-time PCR in SAMP8 mice
Procedure: as §2

I2-IR = assay: Competition binding against the selective I2-IR radioligand [3H]-2-BFI in membranes from post-mortem human frontal cortex; details: for [^3H]-2-BFI I2 binding affinity (pKi): membranes from post-mortem human frontal cortex, radioligand [3H]-2-BFI
[6] = Dissolution of test compounds noted in the PAMPA-BBB assay (PBS:EtOH 70:30); assay type: physicochemical; parameters: key: *= poor dissolution
Procedure: as §3

Row | SMILES | Papp (in vitro) [×10⁻⁶ cm/s] | CNS Prediction [2] | [^3H]-2-BFI I2 binding affinity (pKi) (I2-IR) | dissolution [6] | also measured
1 | CCOP(=O)(OCC)[C@]1(c2ccccc2)N=C[C@H]2C(=O)N(c3ccc(F)c(Cl)c3)C(=O)[C@H]21 (racemic) [Compound I-06, Diethyl (1RS,3aSR,6aSR)-5-(3-chloro-4-fluorophenyl)-4,6-dioxo-1-phenyl-1,3a,4,5,6,6a-hexahydropyrrolo[3,4-c]pyrrole-1-phosphonate] | 9.7 ± 0.7 | CNS+ (compounds of high BBB permeation (CNS+): Pe (10^−6 cm s^−1)>5,179) | – | – | cognitive / memory effect in NORT (in words) (5XFAD mice; 5XFAD mice, treated group compared to the control): recovered DI levels of the Wild Type (Wt) control group; also recorded: improves cognitive abilities; DI (−1, 1) NORT 2 h (5XFAD mice; female 5XFAD mice at 6 months, 5 mg/kg, retention 2 h): 0.199 ± 0.053; DI (−1, 1) NORT 24 h (5XFAD mice; female 5XFAD mice at 6 months, 5 mg/kg, retention 24 h): 0.229 ± 0.051; cognitive / memory effect in NORT (in words) (SAMP8 mice; SAMP8 mice, treated group compared to the control): reduced memory deficits; also recorded: improves cognitive abilities; DI (−1, 1) NORT 2 h (SAMP8 mice; female SAMP8 mice at 12 months, 5 mg/kg, retention 2 h, mean ± SEM): 0.33 ± 0.071; DI (−1, 1) NORT 24 h (SAMP8 mice; female SAMP8 mice at 12 months, 5 mg/kg, retention 24 h): 0.273 ± 0.042; II-6 marker of neuroinflammation, gene expression in brain (in words) (II-6 [1]): reduced; II-6 marker of neuroinflammation, gene expression in brain (in words) (II-6 [3]): reduced; Cxcl10 marker of neuroinflammation, gene expression in brain (in words) (Cxcl10 [4]): reduced; Cxcl10 marker of neuroinflammation, gene expression in brain (in words) (Cxcl10 [5]): reduced
2 | CCOP(=O)(OCC)[C@]1(c2ccccc2)N=C[C@H]2C(=O)N(c3ccc(OC)cc3)C(=O)[C@H]21 (racemic) [Compound I-22, Diethyl (1RS,3aSR,6aSR)-5-(4-methoxyphenyl)-4,6-dioxo-1-phenyl-1,3a,4,5,6,6a-hexahydropyrrolo[3,4-c]pyrrole-1-phosphonate] | 3.9 ± 0.15 | CNS+/− (compounds of uncertain BBB permeation (CNS+/−): 5,179>Pe (10^−6 cm s^−1)>2,083) | 6.65 ± 1.27 | – | –
3 | CCOP(=O)(OCC)[C@]1(C)N=C[C@H]2C(=O)N(C)C(=O)[C@H]21 (racemic) [Compound I-25, Diethyl (1RS,3aRS,6aRS)-1,5-dimethyl-4,6-dioxo-1,3a,4,5,6,6a-hexahydropyrrolo[3,4-c]pyrrole-1-phosphonate] | 4.6 ± 0.7 | CNS+/− (compounds of uncertain BBB permeation (CNS+/−): 5,179>Pe (10^−6 cm s^−1)>2,083) | 8.57 ± 0.39 | – | Selectivity I2/α2 (I2-IR; antilogarithm of the difference between pKi for I2-IR and pKi for α2-AR): 19
4 | O=C1[C@@H]2[C@@H](C=N[C@@]2(c2ccccc2)P(=O)(Oc2ccccc2)Oc2ccccc2)C(=O)N1c1ccccc1 (racemic) [Compound I-26, Diphenyl (1RS,3aSR,6aSR)-4,6-dioxo-1,5-diphenyl-1,3a,4,5,6,6a-hexahydropyrrolo[3,4-c]pyrrole-1-phosphonate] | 2.3 ± 0.04 | CNS+/− (compounds of uncertain BBB permeation (CNS+/−): 5,179>Pe (10^−6 cm s^−1)>2,083) | 5.86 ± 1.22 | I-26* | –
5 | CCOP(=O)(OCC)[C@]1(c2ccccc2)N=C[C@H]2C(=O)N(c3cccc([N+](=O)[O-])c3)C(=O)[C@H]21 (racemic) [Compound I-28, Diethyl (1RS,3aSR,6aSR)-5-(3-nitrophenyl)-4,6-dioxo-1-phenyl-1,3a,4,5,6,6a-hexahydropyrrolo[3,4-c]pyrrole-1-phosphonate] | 4.5 ± 0.25 | CNS+/− (compounds of uncertain BBB permeation (CNS+/−): 5,179>Pe (10^−6 cm s^−1)>2,083) | 6.81 ± 0.27 | I-28* | –
6 | CCOP(=O)(OCC)[C@]1(c2ccccc2)N=C[C@H]2C(=O)N(Cc3ccccc3)C(=O)[C@H]21 (racemic) [Compound I-29, Diethyl (1RS,3aSR,6aSR)-5-benzyl-4,6-dioxo-1-phenyl-1,3a,4,5,6,6a-hexahydropyrrolo[3,4-c]pyrrole-1-phosphonate] | > 30 | CNS+ (compounds of high BBB permeation (CNS+): Pe (10^−6 cm s^−1)>5,179) | 5.26 ± 0.22 | I-29* | –
7 | CCOP(=O)(OCC)[C@]1(c2ccccc2)N=C[C@H]2C(=O)N(c3ccc(-c4ccccc4)cc3)C(=O)[C@H]21 (racemic) [Compound I-32, Diethyl (1RS,3aSR,6aSR)-5-(1,1′-biphenyl)-4-yl-4,6-dioxo-1-phenyl-1,3a,4,5,6,6a-hexahydropyrrolo[3,4-c]pyrrole-1-phosphonate] | 8.2 ± 0.3 | CNS+ (compounds of high BBB permeation (CNS+): Pe (10^−6 cm s^−1)>5,179) | 7.90 ± 0.46 | – | –
8 | CCOP(=O)(OCC)[C@]1(c2ccccc2)N=C[C@H]2C(=O)N(CCc3ccccc3)C(=O)[C@H]21 (racemic) [Compound I-33, Diethyl (1RS,3aSR,6aSR)-4,6-dioxo-5-phenethyl-1-phenyl-1,3a,4,5,6,6a-hexahydropyrrolo[3,4-c]pyrrole-1-phosphonate] | 6.2 ± 0.3 | CNS+ (compounds of high BBB permeation (CNS+): Pe (10^−6 cm s^−1)>5,179) | 5.85 ± 0.18 | – | Selectivity I2/α2 (I2-IR): 182
9 | CCOP(=O)(OCC)[C@]1(c2ccccc2)N=C[C@H]2C(=O)N(c3ccc(Oc4ccccc4)cc3)C(=O)[C@H]21 (racemic) [Compound I-34, Diethyl (1RS,3aSR,6aSR)-4,6-dioxo-5-(4-phenoxyphenyl)-1-phenyl-1,3a,4,5,6,6a-hexahydropyrrolo[3,4-c]pyrrole-1-phosphonate] | 6.5 ± 0.02 | CNS+ (compounds of high BBB permeation (CNS+): Pe (10^−6 cm s^−1)>5,179) | 6.96 ± 0.30 | – | –
10 | CCOP(=O)(OCC)[C@]1(c2ccccc2)N=C[C@H]2C(=O)N(c3ccc(Br)cc3)C(=O)[C@H]21 (racemic) [Compound I-47, Diethyl (1RS,3aSR,6aSR)-5-(4-bromophenyl)-4,6-dioxo-1-phenyl-1,3a,4,5,6,6a-hexahydropyrrolo[3,4-c]pyrrole-1-phosphonate] | 4.4 ± 0.4 | CNS+/− (compounds of uncertain BBB permeation (CNS+/−): 5,179>Pe (10^−6 cm s^−1)>2,083) | – | I-47* | –
11 | CCOP(=O)(OCC)[C@]1(c2ccccc2)N=C[C@H]2C(=O)N(c3cc([N+](=O)[O-])ccc3C)C(=O)[C@H]21 (racemic) [Compound I-50, Diethyl (1RS,3aSR,6aSR)-5-(2-methyl-5-nitrophenyl)-4,6-dioxo-1-phenyl-1,3a,4,5,6,6a-hexahydropyrrolo[3,4-c]pyrrole-1-phosphonate] | 1.4 ± 0.04 | CNS− (compounds of low BBB permeation (CNS−): Pe (10^−6 cm s^−1)<2,083) | – | I-50* | –
12 | CCOP(=O)(OCC)[C@]1(c2ccccc2)N=C[C@H]2C(=O)N(c3cccc(Cl)c3)C(=O)[C@H]21 (racemic) [Compound I-53, Diethyl (1RS,3aSR,6aSR)-5-(3-chlorophenyl)-4,6-dioxo-1-phenyl-1,3a,4,5,6,6a-hexahydropyrrolo[3,4-c]pyrrole-1-phosphonate] | 3.7 ± 0.1 | CNS+/− (compounds of uncertain BBB permeation (CNS+/−): 5,179>Pe (10^−6 cm s^−1)>2,083) | – | I-53* | –
